Entries after “also recorded” stand apart in the source; their conditions may differ.
Assays:
[1] = test system: NOTCH signaling; assay: Western blot and qRT-PCR analyses of NOTCH signaling in group 1 ATRT cell lines; format: cell-based, human; conditions: group 1 cell lines 78C, CHLA02, CHLA05
Method: Nuclear and whole cell lysates were prepared using cytosol lysis buffer or nuclear buffer F (Sommer et al., 1998) respectively and immunoblotted with antibodies to SMARCB1/BAF47 (BD Biosciences, USA, Cat #612110), cleaved NOTCH1 (Cell Signaling, USA, Cat #2421S), pSMAD1/5 (Cell Signaling, USA, Cat #95165), SMAD1 (Cell Signaling, USA, Cat #9743S) or a-Tubulin (Sigma-Aldrich, USA, Cat #T9026) as per standard methods. Phospho-PDGFRβ P70 was obtained from Santa Cruz Biotechnology (Santa Cruz, Calif. USA, Cat #sc-12909-R). BAF47 immuno-staining of tumor samples was performed by the Hospital for Sick Children Pathology Department (Toronto, ON, Canada) as per standard clinical protocols.
cDNAs were synthesized from high quality RNA using the High Capacity cDNA Reverse Transcription Kit (Applied Biosystem, Cat #4368814) as per the manufacturer's instructions and qRT-PCR analyses were performed using purchased Taqman probes and the TaqMan® Gene Expression Master Mix (Invitrogen) (BAMBI, SOST, BCR [exon2, 8, 16, 18, 21, 23], RGL4, CHCHD10, MMP11, SMARCB1 [exon 2, 5]). A subset of analyses was performed with Platinum SYBR Green qPCR reagent kit (Invitrogen) as per the manufacturer's protocol with in-house designed primers to amplify invariant exons (HES1, HES5). […] Synthesized cDNA were analysed with gene specific probes using the Platinum SYBR green qPCR reagent kit. […]

[2] = test system: group 1 ATRT cell lines; assay: MTS cell viability assay on group 1 ATRT cell lines; format: cell-based, human; conditions: for growth inhibitory effects / sensitivity: epigenetic inhibitors
Method: (§1) ATRT cell line CHLA02 (ATCC, Cat #CRL-3020), CHLA04 (ATCC, Cat #CRL-3036) were cultured according to the manufacturer's protocol. CHLA05 and CHLA06 cells, which were derived from primary ATRTs by Dr. Anat Erdreich-Epstein from the Children's Hospital of Los Angeles, were cultured in DMEM/F12 supplemented with 20 ng/mL FGF, 20 ng/mL EGF, and 1× B27 supplement. SH cells were obtained from Dr. Shih Hwa Choiu at Taipei Veterans General Hospital and was cultured as previously described (Kao et al., 2005). BT12 and BT16, which were kind gifts from Dr. Peter Houghton at Nationalwide Children's Hospital, were cultured in RPMI-1640 supplemented with 10% FBS. ATRT 78C cells was established from a corresponding primary ATRT (T13; diagnosed at The Hospital for Sick Children) and cultured in Neurobasal medium supplemented with 75 ng/mL BSA, 10 ng/mL FGF1, 10 ng/mL EGF, 2 ug/mL Heparin, 1× B27 and 1× N2 supplements. CHLA266 was grown in IMEM media with 10% FBS and 1× ITS. G401 (ATCC, Cat #CRL-1441) was grown in McCoy's 5A media with 10% FBS.
(§2) To assess effects of NOTCH and BMP signaling on ATRT cell phenotypes, cells were treated with N-[N-(3,5-Difluorophenacetyl)-L-alanyl]-S-phenylglycine t-butyl ester (DAPT; EMD Chemicals, Germany, Cat #565770) or Dorsomorphin (DM; Sigma-Aldrich, USA, Cat #P5499) and analyzed using MTS assays for cell viability. […] For epigenomic drug screening experiments, conditions were set up identically with the exception of absorbance readings being taken at 3 and 7 days post-treatment. Cell viability was determined based on mean cell absorbance at 492 nm.

[3] = test system: group 2 ATRT cell lines; assay: MTS cell viability assay on group 2 ATRT cell lines; format: cell-based, human; conditions: for changes in growth / sensitivity: group 2 cell lines (SH, CHLA06, BT16, BT12), epigenetic inhibitors
Method: as §1, §2

[4] = test system: group 1 (CHLA02) ATRT cell line; assay: TUNEL assay in group 1 ATRT cell line; format: cell-based, human
Method: TUNEL assays were performed using in situ cell death detection kit, Fluorescein, according to manufacturer's instructions (Roche, West Sussex, UK). Pictures were taken at 20× magnification. Percentage of TUNEL positive population was calculated with respect to DAPI-positive cells, in five random fields per cell cultured slide, and averaged as representative population. Fold-changes were obtained by comparing with untreated control. Cell migration and invasive phenotypes of ATRT cell lines was assessed using a Transwell Boyden chamber assay according to manufacturer's instructions (BD Science). In brief, 3.5×10^3 cells were seeded onto membranes with 8 μm pores in Boyden chambers, and incubated at 37° C. Membranes were removed after 18 hours and examined at 10× magnification under the microscope. To enumerate the number of cells that had invaded and migrated, cell counts from five random fields on the membrane was used to estimate the total number of cells migrated across the transwell membrane.

[5] = cited from earlier work
[6] = test system: ATRT cell lines; assay: MTS cell viability screen of epigenetic probes on the whole ATRT cell line panel (4 group 1 and 4 group 2); format: cell-based, human; conditions: 4 group 1 and 4 group 2 cell lines, varying doses
Text: Recent studies have reported promising therapeutic agents targeting a number of epigenetic and signaling pathways in ATRTs (Ginn and Gajjar, 2012), however the relevance of these agents to ATRT sub-types is unknown as these prior studies have examined a very limited number of cell lines. To identify additional ATRT sub-group specific pathways/targets, the effects of 12 small molecule inhibitors/chemical probes targeting epigenetic pathways on growth of 4 group 1 (CHLA266, CHLA04, 02, 05) and 4 group 2 ATRT (SH, CHLA06, BT16 and BT12) cell lines (FIG. 18A) were tested.
as §1, §2

[7] = test system: G401, a cell line derived from a renal rhabdoid tumor; assay: Growth of G401 renal rhabdoid tumor cell line; format: cell-based, human; conditions: data not shown
Method: as §1

## C[C@H](NC(=O)Cc1cc(F)cc(F)c1)C(=O)N[C@H](C(=O)OC(C)(C)C)c1ccccc1 [DAPT, N-[N-(3,5-difluorophenacetyl)-L-alanyl]-S-phenylglycine t-butyl ester]
[1]; Western blot, increasing doses
  NICD expression: dose dependent decrease in NICD expression
[1]; qRT-PCR, four days post-treatment
  NOTCH transcriptional targets, HES1 and HESS: downregulation
[2]; group 1 (78C, CHLA05, CHLA02), DAPT or DM, varying doses, days 1-5, relative to DMSO
  cell line growth (cell viability, MTS): inhibited group 1 and 2 ATRT cell line growth in a dose dependent manner; also recorded: sensitive
[3]; group 2A/B (SH, CHLA06, BT16), DAPT or DM, varying doses, days 1-5, relative to DMSO
  cell line growth (cell viability, MTS): no significant effects on cell growth; also recorded: largely insensitive
[4]
  cell death / apoptosis (TUNEL): increased cell death; also recorded: induced apopotosis

## Cc1nc(Nc2ncc(C(=O)Nc3c(C)cccc3Cl)s2)cc(N2CCN(CCO)CC2)n1 [Dasatinib]
[5]
  blood brain permeability: demonstrated blood brain permeability

## Cc1sc2c(c1C)C(c1ccc(Cl)cc1)=N[C@@H](CC(=O)OC(C)(C)C)c1nnc(C)n1-2 [JQ1, (S)-tent-butyl 2-(4-(4-chlorophenyl)-2,3,9-trimethyl-6H-thieno[3,2-f][1,2,4]triazolo[4,3-a][1,4]diazepin-6-yl)acetate]
[6]
  effect on ATRT cell growth across sub-groups: sub-group specific effect
[2]; group 1 ATRT cell lines, MTS
  growth inhibitory effects / sensitivity: growth inhibitory effects were observed only in group 1 ATRT cell lines
[3]; varying doses, MTS
  changes in growth / sensitivity: 3 of the 4 group 2 cell lines showed no changes in growth

## O=C(/C=C/c1ccc(CN(CCO)CCc2c[nH]c3ccccc23)cc1)NO [LAQ824]
[6]
  effect on ATRT cell growth across sub-groups: significantly diminished growth of all cell lines; also recorded: no sub-type specific effects

## Cc1cn(-c2cc(NC(=O)c3ccc(C)c(Nc4nccc(-c5cccnc5)n4)c3)cc(C(F)(F)F)c2)cn1 [Nilotinib]
[7]
  growth of G401: robustly inhibit the growth
[2]; group 1 ATRT cell lines, MTS, 5 days
  growth / sensitivity to tyrosine kinase inhibitor: resistant
[3]; group 2 ATRT cell lines, MTS, 5 days
  growth / sensitivity to tyrosine kinase inhibitor: robustly diminished growth; also recorded: sensitive

## COc1cc2c(NC3CCN(C(C)C)CC3)nc(C3CCCCC3)nc2cc1OCCCN1CCCC1 [UNC0638]
[6]
  effect on ATRT cell growth across sub-groups: sub-group specific effect
[2]; group 1 ATRT cell lines, MTS
  growth inhibitory effects / sensitivity: only group 1 ATRT cell lines were sensitive
[3]; varying doses, MTS
  changes in growth / sensitivity: 3 of the 4 group 2 cell lines showed no changes in growth and largely insensitive

## CCCc1cc(C)[nH]c(=O)c1CNC(=O)c1cc(-c2ccc(N3CCN(C(C)C)CC3)nc2)cc2c1cnn2C(C)C [UNC1999]
[6]
  effect on ATRT cell growth across sub-groups: sub-group specific effect
[2]; group 1 ATRT cell lines, MTS
  growth inhibitory effects / sensitivity: growth inhibitory effects were observed only in group 1 ATRT cell lines
[3]; varying doses, MTS
  changes in growth / sensitivity: 3 of the 4 group 2 cell lines showed no changes in growth and largely insensitive
